What was measured:
JAK2 tyrosine kinase = JAK2 tyrosine kinase (Homo sapiens, UniProt O60674); conditions: see PATENT DOCUMENT 1; cited from earlier work
[1] = Crystallization experiment, operation procedure 2 (dissolved at 40° C., cooled to 4° C., stirred 3 days); assay type: physicochemical; set-up: key: —: The symbol “-” in Table 1 to Table 3 means that no precipitate was obtained
Protocol: (§1) Each of various solvents was added to the Form-I crystal of the present invention (several mg), crystals of the compound A were precipitated according to the following operation procedures, and the crystal form of the precipitated crystals was confirmed. The results of the operation procedures 1 to 3 are shown in Table 1 and Table 2, and the results of the operation procedure 4 are shown in Table 3. The symbol “-” in Table 1 to Table 3 means that no precipitate was obtained.
Each of various solvents (50 μL) was added to the Form-I crystal of the present invention to dissolve the Form-I crystal of the present invention at 40° C. […] The solution was cooled to 4° C. and stirred for 3 days.

[2] = Crystallization experiment, operation procedure 3 (dissolved at 40° C., solvent gradually distilled off at room temperature); assay type: physicochemical; set-up: key: —: The symbol “-” in Table 1 to Table 3 means that no precipitate was obtained
Protocol: as §1
Each of various solvents (50 μL) was added to the Form-I crystal of the present invention to dissolve the Form-I crystal of the present invention at 40° C. […] The solvent was gradually distilled off at room temperature.

[3] = Crystallization experiment, operation procedure 4 (saturated solution, poor solvent added); assay type: physicochemical; set-up: key: —: The symbol “-” in Table 1 to Table 3 means that no precipitate was obtained
Protocol: Each of various solvents was added to the Form-I crystal of the present invention (several mg), crystals of the compound A were precipitated according to the following operation procedures, and the crystal form of the precipitated crystals was confirmed. The results of the operation procedures 1 to 3 are shown in Table 1 and Table 2, and the results of the operation procedure 4 are shown in Table 3. The symbol “-” in Table 1 to Table 3 means that no precipitate was obtained. Each of various dissolving solvents (minimum volume) was added to the Form-I crystal of the present invention to prepare a saturated solution. Various poor solvents were added thereto.

[4] = Crystallization experiment, operation procedure 1 (suspension stirred 2 days, cooled and warmed between 4 to 40° C.); assay type: physicochemical; set-up: key: —: The symbol “-” in Table 1 to Table 3 means that no precipitate was obtained
Protocol: as §1
Each of various solvents (50 μL) was added to the Form-I crystal of the present invention to make a suspension thereof, and the suspension was stirred for 2 days while repeatedly being cooled and warmed between 4 to 40° C.

[5] = solvent 1,4-dioxane:water 80:20
[6] = solvent acetonitrile:dimethyl sulfoxide 80:20
[7] = solvent acetonitrile:water 80:20
[8] = solvent acetonitrile:water 95:5
[9] = solvent ethanol:dimethyl sulfoxide 80:20
[10] = solvent tetrahydrofuran:water 20:80
[11] = solvent tetrahydrofuran:water 95:5

Chain of JAK2 tyrosine kinase (O60674 whole entry): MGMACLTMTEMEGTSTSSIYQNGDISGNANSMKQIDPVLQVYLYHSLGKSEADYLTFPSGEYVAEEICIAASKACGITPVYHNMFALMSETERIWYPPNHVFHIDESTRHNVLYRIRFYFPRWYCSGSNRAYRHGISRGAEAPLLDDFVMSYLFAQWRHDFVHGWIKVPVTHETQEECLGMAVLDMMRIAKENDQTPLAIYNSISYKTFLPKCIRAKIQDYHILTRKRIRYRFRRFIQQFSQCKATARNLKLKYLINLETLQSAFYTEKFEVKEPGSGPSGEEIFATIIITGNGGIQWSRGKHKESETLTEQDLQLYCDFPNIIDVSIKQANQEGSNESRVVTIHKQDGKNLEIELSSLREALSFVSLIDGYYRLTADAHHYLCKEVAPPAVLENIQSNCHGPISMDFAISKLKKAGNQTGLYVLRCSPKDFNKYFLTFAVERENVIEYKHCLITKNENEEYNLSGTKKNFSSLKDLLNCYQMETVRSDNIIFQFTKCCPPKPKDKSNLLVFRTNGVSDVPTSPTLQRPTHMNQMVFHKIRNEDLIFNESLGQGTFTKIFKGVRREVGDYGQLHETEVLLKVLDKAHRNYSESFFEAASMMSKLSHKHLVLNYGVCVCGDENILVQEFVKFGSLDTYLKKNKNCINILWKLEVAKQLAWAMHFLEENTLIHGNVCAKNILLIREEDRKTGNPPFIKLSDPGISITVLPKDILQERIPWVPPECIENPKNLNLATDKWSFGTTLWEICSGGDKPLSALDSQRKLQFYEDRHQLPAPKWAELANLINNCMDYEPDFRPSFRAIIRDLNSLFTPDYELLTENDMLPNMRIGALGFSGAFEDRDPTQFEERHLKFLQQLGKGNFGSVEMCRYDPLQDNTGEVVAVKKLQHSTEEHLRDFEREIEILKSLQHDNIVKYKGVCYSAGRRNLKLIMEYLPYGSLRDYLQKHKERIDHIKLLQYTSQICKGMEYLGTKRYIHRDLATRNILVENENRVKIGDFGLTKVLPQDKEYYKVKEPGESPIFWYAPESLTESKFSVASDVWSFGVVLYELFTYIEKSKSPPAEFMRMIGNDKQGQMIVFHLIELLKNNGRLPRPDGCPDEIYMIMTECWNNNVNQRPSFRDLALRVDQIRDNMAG

- crystal form of the precipitated crystals ([1]; solvent 1,4-dioxane): solvate
- crystal form of the precipitated crystals [1, 5]: —
- crystal form of the precipitated crystals ([1]; solvent 1-butanol): —
- crystal form of the precipitated crystals ([1]; solvent 1-methoxy-2 -propanol): —
- crystal form of the precipitated crystals ([1]; solvent 1-propanol): Form-I
- crystal form of the precipitated crystals ([1]; solvent 2-methoxyethanol): —
- crystal form of the precipitated crystals ([1]; solvent 2-methoxyethyl ether): —
- crystal form of the precipitated crystals ([1]; solvent 2-propanol): —
- crystal form of the precipitated crystals ([1]; solvent 2-propanol:water 80:20): —
- crystal form of the precipitated crystals ([1]; solvent 2-propanol:water 95:5): —
- crystal form of the precipitated crystals ([1]; solvent N,N-dimethylformamide): —
- crystal form of the precipitated crystals ([1]; solvent N-methylpyrrolidone): —
- crystal form of the precipitated crystals ([1]; solvent acetone): Form-I
- crystal form of the precipitated crystals ([1]; solvent acetone:water 20:80): —
- crystal form of the precipitated crystals ([1]; solvent acetone:water 80:20): —
- crystal form of the precipitated crystals ([1]; solvent acetone:water 95:5): —
- crystal form of the precipitated crystals ([1]; solvent acetonitrile): —
- crystal form of the precipitated crystals [1, 6]: —
- crystal form of the precipitated crystals [1, 7]: —
- crystal form of the precipitated crystals [1, 8]: —
- crystal form of the precipitated crystals ([1]; solvent chlorobenzene): —
- crystal form of the precipitated crystals ([1]; solvent chloroform): —
- crystal form of the precipitated crystals ([1]; solvent cyclohexane): —
- crystal form of the precipitated crystals ([1]; solvent cyclohexanone): —
- crystal form of the precipitated crystals ([1]; solvent dichloromethane): —
- crystal form of the precipitated crystals ([1]; solvent dimethyl carbonate): —
- crystal form of the precipitated crystals ([1]; solvent dimethyl sulfoxide): —
- crystal form of the precipitated crystals ([1]; solvent ethanol): Form-I
- crystal form of the precipitated crystals [1, 9]: Form-I
- crystal form of the precipitated crystals ([1]; solvent ethanol:water 20:80): —
- crystal form of the precipitated crystals ([1]; solvent ethyl acetate): —
- crystal form of the precipitated crystals ([1]; solvent heptane): —
- crystal form of the precipitated crystals ([1]; solvent isopropyl acetate): —
- crystal form of the precipitated crystals ([1]; solvent isopropyl ether): —
- crystal form of the precipitated crystals ([1]; solvent methanol): Form-I
- crystal form of the precipitated crystals ([1]; solvent methanol:water 80:20): Form-I
- crystal form of the precipitated crystals ([1]; solvent methanol:water 95:5): —
- crystal form of the precipitated crystals ([1]; solvent methyl acetate): —
- crystal form of the precipitated crystals ([1]; solvent methyl ethyl ketone): —
- crystal form of the precipitated crystals ([1]; solvent methyl isobutyl ketone): —
- crystal form of the precipitated crystals ([1]; solvent nitromethane): —
- crystal form of the precipitated crystals ([1]; solvent t-butyl methyl ether): —
- crystal form of the precipitated crystals ([1]; solvent tetrahydrofuran): —
- crystal form of the precipitated crystals [1, 10]: —
- crystal form of the precipitated crystals [1, 11]: —
- crystal form of the precipitated crystals ([1]; solvent toluene): —
- crystal form of the precipitated crystals ([1]; solvent trifluoroethanol): —
- crystal form of the precipitated crystals ([1]; solvent water): —
- crystal form of the precipitated crystals ([2]; solvent acetone): —
- crystal form of the precipitated crystals ([2]; solvent acetonitrile): —
- crystal form of the precipitated crystals ([2]; solvent dimethyl sulfoxide): Form-I
- crystal form of the precipitated crystals ([2]; solvent nitromethane): —
- Crystal form ([3]; dissolving solvent 2-methoxyethanol, poor solvent cyclohexane): Form-I
- Crystal form ([3]; dissolving solvent 2-methoxyethanol, poor solvent isopropyl acetate): Form-I
- Crystal form ([3]; dissolving solvent 2-methoxyethanol, poor solvent t-butyl methyl ether): Form-I
- Crystal form ([3]; dissolving solvent 2-methoxyethanol, poor solvent water): —
- Crystal form ([3]; dissolving solvent N,N-dimethylformamide, poor solvent 2-propanol): Form-I
- Crystal form ([3]; dissolving solvent N,N-dimethylformamide, poor solvent diethyl ether): Form-I
- Crystal form ([3]; dissolving solvent N,N-dimethylformamide, poor solvent isopropyl acetate): Form-I
- Crystal form ([3]; dissolving solvent N,N-dimethylformamide, poor solvent t-butyl methyl ether): Form-I
- Crystal form ([3]; dissolving solvent N,N-dimethylformamide, poor solvent water): Form-I
- Crystal form ([3]; dissolving solvent N-methylpyrrolidone, poor solvent 2-propanol): Form-I
- Crystal form ([3]; dissolving solvent N-methylpyrrolidone, poor solvent ethyl acetate): Form-I
- Crystal form ([3]; dissolving solvent N-methylpyrrolidone, poor solvent toluene): Form-I
- Crystal form ([3]; dissolving solvent N-methylpyrrolidone, poor solvent water): Form-I
- Crystal form ([3]; dissolving solvent acetone:water 80:20, poor solvent 2-propanol): —
- Crystal form ([3]; dissolving solvent acetone:water 80:20, poor solvent water): Form-II
- Crystal form ([3]; dissolving solvent dimethyl sulfoxide, poor solvent 2-propanol): Form-I
- Crystal form ([3]; dissolving solvent dimethyl sulfoxide, poor solvent diisopropyl ether): —
- Crystal form ([3]; dissolving solvent dimethyl sulfoxide, poor solvent ethyl acetate): Form-I
- Crystal form ([3]; dissolving solvent dimethyl sulfoxide, poor solvent t-butyl methyl ether): Form-I
- Crystal form ([3]; dissolving solvent dimethyl sulfoxide, poor solvent water): —
- Crystal form ([3]; dissolving solvent tetrahydrofuran:water 80:20, poor solvent water): Form-I
- Crystal form ([3]; dissolving solvent trifluoroethanol, poor solvent cyclohexane): —
- Crystal form ([3]; dissolving solvent trifluoroethanol, poor solvent diisopropyl ether): Form-I
- Crystal form ([3]; dissolving solvent trifluoroethanol, poor solvent water): —
- crystal form of the precipitated crystals ([4]; solvent 1,4-dioxane): Form-I
- crystal form of the precipitated crystals [4, 5]: Form-I
- crystal form of the precipitated crystals ([4]; solvent 1-butanol): Form-I
- crystal form of the precipitated crystals ([4]; solvent 1-methoxy-2 -propanol): Form-I
- crystal form of the precipitated crystals ([4]; solvent 1-propanol): Form-I
- crystal form of the precipitated crystals ([4]; solvent 2-methoxyethanol): Form-I
- crystal form of the precipitated crystals ([4]; solvent 2-methoxyethyl ether): Form-I
- crystal form of the precipitated crystals ([4]; solvent 2-propanol): Form-I
- crystal form of the precipitated crystals ([4]; solvent 2-propanol:water 80:20): Form-I
- crystal form of the precipitated crystals ([4]; solvent 2-propanol:water 95:5): Form-I
- crystal form of the precipitated crystals ([4]; solvent N,N-dimethylformamide): —
- crystal form of the precipitated crystals ([4]; solvent N-methylpyrrolidone): —
- crystal form of the precipitated crystals ([4]; solvent acetone): Form-I
- crystal form of the precipitated crystals ([4]; solvent acetone:water 20:80): Form-I
- crystal form of the precipitated crystals ([4]; solvent acetone:water 80:20): Form-I
- crystal form of the precipitated crystals ([4]; solvent acetone:water 95:5): Form-I
- crystal form of the precipitated crystals ([4]; solvent acetonitrile): Form-I
- crystal form of the precipitated crystals [4, 6]: Form-I
- crystal form of the precipitated crystals [4, 7]: Form-I
- crystal form of the precipitated crystals [4, 8]: Form-I
- crystal form of the precipitated crystals ([4]; solvent chlorobenzene): Form-I
- crystal form of the precipitated crystals ([4]; solvent chloroform): Form-I
- crystal form of the precipitated crystals ([4]; solvent cyclohexane): Form-I
- crystal form of the precipitated crystals ([4]; solvent cyclohexanone): Form-I
- crystal form of the precipitated crystals ([4]; solvent dichloromethane): Form-I
- crystal form of the precipitated crystals ([4]; solvent dimethyl carbonate): Form-I
- crystal form of the precipitated crystals ([4]; solvent dimethyl sulfoxide): —
- crystal form of the precipitated crystals ([4]; solvent ethanol): Form-I
- crystal form of the precipitated crystals [4, 9]: Form-I
- crystal form of the precipitated crystals ([4]; solvent ethanol:water 20:80): Form-I
- crystal form of the precipitated crystals ([4]; solvent ethyl acetate): Form-I
- crystal form of the precipitated crystals ([4]; solvent heptane): Form-I
- crystal form of the precipitated crystals ([4]; solvent isopropyl acetate): Form-I
- crystal form of the precipitated crystals ([4]; solvent isopropyl ether): Form-I
- crystal form of the precipitated crystals ([4]; solvent methanol): Form-I
- crystal form of the precipitated crystals ([4]; solvent methanol:water 80:20): Form-I
- crystal form of the precipitated crystals ([4]; solvent methanol:water 95:5): Form-I
- crystal form of the precipitated crystals ([4]; solvent methyl acetate): Form-I
- crystal form of the precipitated crystals ([4]; solvent methyl ethyl ketone): Form-I
- crystal form of the precipitated crystals ([4]; solvent methyl isobutyl ketone): Form-I
- crystal form of the precipitated crystals ([4]; solvent nitromethane): Form-I
- crystal form of the precipitated crystals ([4]; solvent t-butyl methyl ether): Form-I
- crystal form of the precipitated crystals ([4]; solvent tetrahydrofuran): Form-I
- crystal form of the precipitated crystals [4, 10]: Form-I
- crystal form of the precipitated crystals [4, 11]: Form-I
- crystal form of the precipitated crystals ([4]; solvent toluene): Form-I
- crystal form of the precipitated crystals ([4]; solvent trifluoroethanol): —
- crystal form of the precipitated crystals ([4]; solvent water): Form-I
SMILES: C[C@H](Nc1cc(-c2cnn(C)c2)cc(Nc2cnccn2)n1)c1ccc(F)cc1.O=C(O)/C=C\C(=O)O [compound A, (S)-N^2-[1-(4-fluorophenyl)ethyl]-4-(1-methyl-1H-pyrazol-4-yl)-N^6-(pyrazin-2-yl)pyridine-2,6-diamine maleate]
- JAK2 tyrosine kinase inhibitory action (JAK2 tyrosine kinase): excellent JAK2 tyrosine kinase inhibitory action
